≈ marks a conversion by molar mass, not a printed value. Like-named read-outs stand apart in the source and are kept apart here.
Tests used:
[1] = test system: P. vivax field isolates from Brazil; experiment: Ex vivo drug susceptibility of P. vivax field isolates; assay type: cell-based; conditions: Plasmodium vivax, ex vivo
[2] = Kinetic solubility at pH 7.4; assay type: physicochemical; conditions: phosphate-buffered saline, 25 °C, pH 7.4, aqueous buffer, kinetic from dmso stock; read-out: Kinetic solubility (Sol)
Protocol: Kinetic solubility assay was performed using UV–vis detection. […] The samples were filtered using a multiscreen solubility filter plate. The filtrate was diluted by 50% with MeCN. A five-point linearity curve was prepared in PBS/MeCN (1:1, v/v) at 200, 150, 75, 25, and 2.5 μM. Blank, linearity, and test samples (n = 2) were transferred to a UV-readable plate, and the plate was scanned for absorbance. Best-fit calibration curves were constructed using the calibration standards and used to determine the test sample solubility. The experiment was carried out in duplicate. Diethylstilbestrol, Haloperidol, and Diclofenac Sodium were used as reference standards.

[3] = test system: P. falciparum (3D7 strain) digestive vacuole; experiment: Digestive vacuole homeostasis, acridine orange fluorescence; assay type: cell-based, Plasmodium falciparum; conditions: 10 μM, 3 min treatment, isolated parasites
Protocol: The sample was incubated for 40 min at 37 °C. […] Fluorescence was measured in a Hitachi F-7000 fluorimeter (Tokyo, Japan) by continuous measurement of the fluorescence (λex = 488 nm; λem = 560 nm) at 37 °C. Experiments were performed in triplicate.

[4] = test system: P. falciparum 3D7 (chloroquine-sensitive); experiment: Effect of verapamil on inhibitory activity in P. falciparum 3D7; assay type: cell-based; conditions: Plasmodium falciparum
[5] = Resazurin assay for cytotoxicity in HepG2 cells; assay type: cell-based, human; conditions: human, HepG2 cells; HepG2 cell line, 72 h, resazurin
Protocol: HepG2 cells were trypsinized, counted, and distributed in a 96-well plate at a density of 30,000 cells per well (180 μL). The plate was incubated at 37 °C and 5% CO2 for 24 h. Following incubation, 20 μL of serial dilutions of the tested compounds were added to the wells, with concentrations ranging from 30 to 0.47 μM. The plate was incubated for an additional 72 h at 37 °C and 5% CO2. Untreated cells served as positive controls, while wells containing only medium were used as negative controls. Postincubation, microscopy was employed to determine the highest compound concentration for treatment results. […] Concentration–response curves were generated, and half-maximal inhibitory concentration (CC50) values were determined using nonlinear regression analysis.

[6] = test system: P. falciparum 3D7 strain (Pf3D7); experiment: Antiplasmodial activity against P. falciparum 3D7 blood-stage parasites (SYBR Green, 72 h); assay type: cell-based, Plasmodium falciparum; conditions: Plasmodium falciparum
Rat hepatocyte stability = assay type: in vitro ADME; conditions: rat hepatocyte stability
Protocol: The reaction was terminated with the addition of ice-cold MeCN at designated time points. The samples were then centrifuged (4200 rpm) for 20 min at 20 °C, and the supernatant was half diluted in water and then analyzed using LCMS/MS. The % parent compound remaining, half-life (t 1/2), and clearance (CLint) were calculated using standard methodology. The experiment was carried out in duplicate. Diltiazem, 7-Ethoxy Coumarin, Propranolol, and Midazolam were used as reference standards.

[7] = test system: P. falciparum field isolates from Brazil; experiment: Ex vivo drug susceptibility of P. falciparum field isolates; assay type: cell-based, Plasmodium falciparum
P. falciparum Dd2 strain = experiment: Antiplasmodial activity against resistant P. falciparum Dd2; assay type: cell-based; conditions: Plasmodium falciparum
[8] = test system: female P. falciparum gametocytes; experiment: P. falciparum dual gamete formation assay (Pf DGFA), female gametocytes; assay type: cell-based; conditions: Plasmodium falciparum, read-out: inhibition against female gametocytes
[9] = Human liver microsome stability; assay type: in vitro ADME; conditions: human, pooled human liver microsomes, human microsomal intrinsic clearance; read-out: hMics, human microsome Clint
Protocol: A solution of the test compounds in phosphate buffer solution (1 μM) was incubated in pooled human or mouse liver microsomes (0.5 mg/mL) for 0, 5, 20, 30, 45, and 60 min at 37 °C in the presence and absence of an NADPH regeneration system (NRS). The tests were conducted by […], India. The reaction was terminated with the addition of ice-cold acetonitrile, containing a […] standard, at designated time points. The sample was centrifuged (4200g) for 20 min at 20 °C and the supernatant was diluted by half in water and then analyzed by LC-MS/MS. The % parent compound remaining, half-life (t 1/2) and clearance (CLint) were calculated using standard methodology. The experiment was carried out in duplicate. Verapamil, diltiazem, phenacetin, and imipramine were used as reference standards.

P. falciparum K1 strain = experiment: Antiplasmodial activity against resistant P. falciparum K1; assay type: cell-based; conditions: Plasmodium falciparum
P. falciparum 7G8 strain = experiment: Antiplasmodial activity against resistant P. falciparum 7G8; assay type: cell-based; conditions: Plasmodium falciparum; resistant strain 7G8; read-out: IC50 ± SD, 7G8
[10] = test system: P. falciparum Dd2 (chloroquine resistance); experiment: Effect of verapamil on inhibitory activity in P. falciparum Dd2; assay type: cell-based; conditions: Plasmodium falciparum; Dd2, absence of verapamil; read-out: IC50^Dd2 (without VP)
[11] = test system: male P. falciparum gametocytes; experiment: P. falciparum dual gamete formation assay (Pf DGFA), male gametocytes; assay type: cell-based; conditions: Plasmodium falciparum, read-out: inhibition against male gametocytes
[12] = eLogD at pH 7.4, miniaturized shake flask method; assay type: physicochemical; conditions: 1-octanol/PBS (1:1, v/v), pH 7.4, pH 7.4, miniaturized shake flask method
Protocol: eLogD at pH 7.4 was determined using a miniaturized shake flask method. A solution of a presaturated mixture of 1-octanol and phosphate-buffered saline (PBS) (1:1, v/v) and the test compound (75 μM) was incubated at 25 °C with constant shaking (850 rpm) for 2h. After incubation, the organic and aqueous phases were separated, and samples of each phase were transferred to a plate for dilution. […] The samples were quantitated using LC-MS/MS. The experiment was carried out in duplicate. Propranolol, Amitriptyline, and Midazolam were used as reference standards.

[13] = test system: P. falciparum RF12 strain; experiment: Antiplasmodial activity against resistant P. falciparum RF12; assay type: cell-based; conditions: Plasmodium falciparum, read-out: IC50 ± SD, RF12
[14] = test system: P. falciparum TM90-2CB strain; experiment: Antiplasmodial activity against resistant P. falciparum TM90-2CB; assay type: cell-based; conditions: Plasmodium falciparum; resistant strain TM90-2CB; read-out: IC50 ± SD, TM90-2CB
P. falciparum 3D7 clone = experiment: Ex vivo schizont maturation assay, 3D7 laboratory strain control; assay type: cell-based; conditions: Plasmodium falciparum, ex vivo assay conditions
[15] = test system: P. falciparum NF54 strain; experiment: Antiplasmodial activity against P. falciparum NF54 (SYBR Green, 72 h); assay type: cell-based, Plasmodium falciparum; conditions: Plasmodium falciparum, NF54, drug-sensitive NF54, strain panel; read-out: IC50 ± SD, NF54
[16] = test system: synchronized P. falciparum parasites (3D7 strain); experiment: P. falciparum asexual blood stage-specificity assay (8 h exposures); assay type: cell-based, Plasmodium falciparum

IC50 ([1]; 9 clinical isolates, read-out: median IC50 (range), P. vivax (9)): 698 nM
EC50 ([1]; read-out: median EC50 against P. vivax field isolates): 698 nM
EC50 ([1]; read-out: range of EC50 across individual P. vivax isolates): 636 to 910 nM
solubility kinetic at 2 h [2]: 195 µM (≈ 78.5 µg/mL)
IC50 ([4]; 3D7, verapamil experiment, read-out: IC50 in 3D7 strain): ~200 nM
IC50 ([4]; read-out: IC50^3D7 (10 μM VP), 3D7, presence of 10 μM verapamil): 460 nM
IC50 ([4]; 3D7, absence of verapamil, read-out: IC50^3D7 (without VP)): 196 nM
IC50 ([6]; 3D7, 72 h, 3D7 strain, 72 h, SYBR Green, read-out: Pf3D7-IC50): 400 ± 100 nM
IC50 ([6]; 3D7, drug-sensitive 3D7, strain panel, read-out: IC50 ± SD, 3D7): 400 ± 100 nM
IC50 ([6]; 3D7 / DD2, sensitive 3D7, in parallel with K1 and Dd2, read-out: IC50^3D7 ± SD): 400 ± 200 nM
R Heps (Clint) (Rat hepatocyte stability): 2.6 μL/min/10^6
IC50 ([7]; Plasmodium falciparum, 7 clinical isolates, ex vivo, read-out: median IC50 (range), P. falciparum (7)): > 10 µM
IC50 (P. falciparum Dd2 strain; 3D7 / DD2, resistant Dd2, in parallel with 3D7, read-out: IC50^Dd2 ± SD): > 10000 nM
IC50 (P. falciparum Dd2 strain; resistant strain Dd2, strain panel, read-out: IC50 ± SD, Dd2): 2600 ± 400 nM
microsomal CLint at 1 μM [9]: 11 µL/min/mg
IC50 (P. falciparum K1 strain; 3D7 / K1, resistant K1, in parallel with 3D7, read-out: IC50^K1 ± SD): 4.5 ± 0.2 µM
IC50 (P. falciparum K1 strain; resistant strain K1, strain panel, read-out: IC50 ± SD, K1): 7.3 ± 0.2 µM
IC50 (P. falciparum 7G8 strain): 1800 ± 300 nM
IC50 [10]: 4.03 µM
logD at 2 h [12]: 1.1
IC50 [13]: 2000 ± 300 nM
IC50 [14]: 2800 ± 500 nM
EC50 (P. falciparum 3D7 clone; 3D7, read-out: EC50 against the P. falciparum 3D7 clone): 363 nM
IC50 (P. falciparum 3D7 clone; 3D7 control, read-out: P. falciparum 3D7 IC50): 363 nM
IC50 [15]: 370 ± 60 nM
SMILES: O=C(c1cc2cc(C(F)(F)F)ccc2[nH]1)N(Cc1cccnc1)CC1CCNC1 (stereo not shown) [Compound 6f, N-(3-Pyridylmethyl)-N-(pyrrolidin-3-ylmethyl)-5-(trifluoromethyl)-1H-indole-2-carboxamide]
effect on digestive vacuole H+ homeostasis (acridine orange fluorescence) [3]: interferes with proton (H^+) homeostasis
CC50 at 72 h [5]: > 30 µM
activity against P. falciparum field isolates ([7]; concentration of 10 μM): inactive
inhibition at 1 µM [8]: 7%
inhibition at 1 µM [11]: 28%
timing of peak activity (lowest IC50^8h) in asexual blood stages [16]: increased potency on the early ring forms
